From patent US9492471B2, “Methods of treating a disease or disorder associated with Bruton'S Tyrosine Kinase” (Celgene Avilomics Research, Inc., priority 2013, dated 2016)
Read-outs that look alike come from different tables or passages of the source.

Assays:
Experiment in all cases: HotSpot kinase profiling
Assay type in all cases: biochemical
BLK = biological target: T1, BLK (Homo sapiens, UniProt P51451)
T1 construct: purchased Reaction Biology Corp
Method in brief: (§1)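 Activity is measured by radiolabel transfer captured on P81 filters after a 2 h room-temperature reaction of kinase, substrate and cofactors. Values are percent inhibition against DMSO.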

CAMK1g = biological target: T2, CAMK1g (Homo sapiens, UniProt Q96NX5)
T2 construct: purchased Reaction Biology Corp
T2 sequence (Q96NX5 whole entry): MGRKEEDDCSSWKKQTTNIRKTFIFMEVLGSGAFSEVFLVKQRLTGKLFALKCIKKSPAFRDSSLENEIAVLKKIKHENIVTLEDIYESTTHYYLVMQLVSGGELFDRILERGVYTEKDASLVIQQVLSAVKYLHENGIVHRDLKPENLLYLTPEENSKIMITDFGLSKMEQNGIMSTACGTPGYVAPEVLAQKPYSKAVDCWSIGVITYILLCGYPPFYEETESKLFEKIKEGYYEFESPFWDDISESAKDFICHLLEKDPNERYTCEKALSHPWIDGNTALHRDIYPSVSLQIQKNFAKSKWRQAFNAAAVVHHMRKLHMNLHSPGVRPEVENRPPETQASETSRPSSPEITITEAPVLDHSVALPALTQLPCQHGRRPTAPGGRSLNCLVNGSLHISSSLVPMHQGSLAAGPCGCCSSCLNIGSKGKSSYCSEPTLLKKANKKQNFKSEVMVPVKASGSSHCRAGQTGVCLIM
Method in brief: as §1

CDK5/p35 = biological target: T3, CDK5/p35 (Homo sapiens, UniProt Q00535)
T3 construct: purchased Reaction Biology Corp
Method in brief: as §1

CHK1 = biological target: T4, CHK1 (Homo sapiens, UniProt O14757)
T4 construct: purchased Reaction Biology Corp
T4 sequence (O14757 1-476): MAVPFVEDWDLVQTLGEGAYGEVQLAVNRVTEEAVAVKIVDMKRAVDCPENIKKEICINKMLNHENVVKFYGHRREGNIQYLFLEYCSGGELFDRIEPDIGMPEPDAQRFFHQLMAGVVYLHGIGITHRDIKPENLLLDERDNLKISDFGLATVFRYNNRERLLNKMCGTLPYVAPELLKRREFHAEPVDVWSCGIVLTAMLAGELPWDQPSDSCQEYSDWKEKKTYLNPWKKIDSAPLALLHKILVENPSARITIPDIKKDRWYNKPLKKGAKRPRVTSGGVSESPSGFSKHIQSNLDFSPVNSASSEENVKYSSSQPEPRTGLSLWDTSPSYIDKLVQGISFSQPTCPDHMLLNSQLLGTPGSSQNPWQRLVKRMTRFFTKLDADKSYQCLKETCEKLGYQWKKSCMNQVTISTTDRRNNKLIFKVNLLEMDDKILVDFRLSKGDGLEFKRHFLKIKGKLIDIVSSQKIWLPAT
Method in brief: as §1

CLK3 = biological target: T5, CLK3 (Homo sapiens, UniProt P49761)
T5 construct: purchased Reaction Biology Corp
T5 sequence (P49761 whole entry): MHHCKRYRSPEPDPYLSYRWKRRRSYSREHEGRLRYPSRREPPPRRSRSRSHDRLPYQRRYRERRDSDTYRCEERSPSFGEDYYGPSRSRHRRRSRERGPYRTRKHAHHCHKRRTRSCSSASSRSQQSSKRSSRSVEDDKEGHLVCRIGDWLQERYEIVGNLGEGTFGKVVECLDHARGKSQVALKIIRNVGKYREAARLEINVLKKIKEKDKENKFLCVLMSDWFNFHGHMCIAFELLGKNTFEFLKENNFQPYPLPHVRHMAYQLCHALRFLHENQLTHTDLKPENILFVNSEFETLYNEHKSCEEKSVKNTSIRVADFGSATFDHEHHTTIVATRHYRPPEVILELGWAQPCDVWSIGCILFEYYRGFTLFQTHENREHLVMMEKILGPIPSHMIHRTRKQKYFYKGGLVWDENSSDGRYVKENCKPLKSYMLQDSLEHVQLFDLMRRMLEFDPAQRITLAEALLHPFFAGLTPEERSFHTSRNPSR
Method in brief: as §1

EPHA3 = biological target: T6, EPHA3 (Homo sapiens, UniProt P29320)
T6 construct: purchased Reaction Biology Corp
T6 sequence (P29320 21-983): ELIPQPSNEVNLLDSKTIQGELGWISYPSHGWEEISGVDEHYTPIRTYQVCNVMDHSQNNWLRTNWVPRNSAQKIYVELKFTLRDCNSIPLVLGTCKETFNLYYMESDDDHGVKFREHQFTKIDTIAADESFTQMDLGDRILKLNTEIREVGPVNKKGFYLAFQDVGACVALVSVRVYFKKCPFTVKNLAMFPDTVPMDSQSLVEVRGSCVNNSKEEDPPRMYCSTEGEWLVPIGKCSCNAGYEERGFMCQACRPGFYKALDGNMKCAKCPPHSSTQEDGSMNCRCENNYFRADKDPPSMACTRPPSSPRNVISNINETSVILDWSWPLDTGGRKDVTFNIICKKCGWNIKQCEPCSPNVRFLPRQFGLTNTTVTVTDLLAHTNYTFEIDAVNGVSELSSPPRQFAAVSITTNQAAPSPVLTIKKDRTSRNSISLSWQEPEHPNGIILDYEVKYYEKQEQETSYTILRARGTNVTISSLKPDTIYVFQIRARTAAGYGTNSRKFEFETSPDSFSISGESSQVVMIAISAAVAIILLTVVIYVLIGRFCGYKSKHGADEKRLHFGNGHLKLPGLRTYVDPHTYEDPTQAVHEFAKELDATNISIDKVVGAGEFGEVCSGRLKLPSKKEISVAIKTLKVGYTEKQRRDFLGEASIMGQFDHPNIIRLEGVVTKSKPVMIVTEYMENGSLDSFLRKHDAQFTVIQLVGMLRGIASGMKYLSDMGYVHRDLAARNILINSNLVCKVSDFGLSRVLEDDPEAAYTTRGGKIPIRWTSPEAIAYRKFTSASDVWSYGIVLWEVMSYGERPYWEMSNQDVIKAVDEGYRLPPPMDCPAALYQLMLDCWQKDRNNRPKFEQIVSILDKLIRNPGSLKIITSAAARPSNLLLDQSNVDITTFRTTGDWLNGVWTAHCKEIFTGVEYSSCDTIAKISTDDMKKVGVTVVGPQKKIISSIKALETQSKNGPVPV
Method in brief: as §1

FRK/PTK5 = biological target: T7, FRK/PTK5 (Homo sapiens, UniProt P42685)
T7 construct: purchased Reaction Biology Corp
T7 sequence (P42685 whole entry): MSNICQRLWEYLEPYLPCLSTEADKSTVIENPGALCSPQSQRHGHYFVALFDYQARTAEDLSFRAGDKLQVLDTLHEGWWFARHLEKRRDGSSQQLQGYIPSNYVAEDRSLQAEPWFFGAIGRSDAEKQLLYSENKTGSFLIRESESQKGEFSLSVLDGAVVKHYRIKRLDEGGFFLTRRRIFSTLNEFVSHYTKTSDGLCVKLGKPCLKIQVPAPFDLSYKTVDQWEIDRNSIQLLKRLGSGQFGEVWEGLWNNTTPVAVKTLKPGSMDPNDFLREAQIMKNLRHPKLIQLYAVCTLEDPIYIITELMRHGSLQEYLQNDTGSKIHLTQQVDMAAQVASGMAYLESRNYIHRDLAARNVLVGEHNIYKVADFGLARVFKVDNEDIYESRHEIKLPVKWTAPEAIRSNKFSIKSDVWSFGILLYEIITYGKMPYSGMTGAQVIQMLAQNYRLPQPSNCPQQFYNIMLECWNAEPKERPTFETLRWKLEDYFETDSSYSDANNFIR
Method in brief: as §1

IRR/INSRR = biological target: T8, IRR/INSRR (Homo sapiens, UniProt P14616)
T8 construct: purchased Reaction Biology Corp
T8 sequence (P14616 27-1297): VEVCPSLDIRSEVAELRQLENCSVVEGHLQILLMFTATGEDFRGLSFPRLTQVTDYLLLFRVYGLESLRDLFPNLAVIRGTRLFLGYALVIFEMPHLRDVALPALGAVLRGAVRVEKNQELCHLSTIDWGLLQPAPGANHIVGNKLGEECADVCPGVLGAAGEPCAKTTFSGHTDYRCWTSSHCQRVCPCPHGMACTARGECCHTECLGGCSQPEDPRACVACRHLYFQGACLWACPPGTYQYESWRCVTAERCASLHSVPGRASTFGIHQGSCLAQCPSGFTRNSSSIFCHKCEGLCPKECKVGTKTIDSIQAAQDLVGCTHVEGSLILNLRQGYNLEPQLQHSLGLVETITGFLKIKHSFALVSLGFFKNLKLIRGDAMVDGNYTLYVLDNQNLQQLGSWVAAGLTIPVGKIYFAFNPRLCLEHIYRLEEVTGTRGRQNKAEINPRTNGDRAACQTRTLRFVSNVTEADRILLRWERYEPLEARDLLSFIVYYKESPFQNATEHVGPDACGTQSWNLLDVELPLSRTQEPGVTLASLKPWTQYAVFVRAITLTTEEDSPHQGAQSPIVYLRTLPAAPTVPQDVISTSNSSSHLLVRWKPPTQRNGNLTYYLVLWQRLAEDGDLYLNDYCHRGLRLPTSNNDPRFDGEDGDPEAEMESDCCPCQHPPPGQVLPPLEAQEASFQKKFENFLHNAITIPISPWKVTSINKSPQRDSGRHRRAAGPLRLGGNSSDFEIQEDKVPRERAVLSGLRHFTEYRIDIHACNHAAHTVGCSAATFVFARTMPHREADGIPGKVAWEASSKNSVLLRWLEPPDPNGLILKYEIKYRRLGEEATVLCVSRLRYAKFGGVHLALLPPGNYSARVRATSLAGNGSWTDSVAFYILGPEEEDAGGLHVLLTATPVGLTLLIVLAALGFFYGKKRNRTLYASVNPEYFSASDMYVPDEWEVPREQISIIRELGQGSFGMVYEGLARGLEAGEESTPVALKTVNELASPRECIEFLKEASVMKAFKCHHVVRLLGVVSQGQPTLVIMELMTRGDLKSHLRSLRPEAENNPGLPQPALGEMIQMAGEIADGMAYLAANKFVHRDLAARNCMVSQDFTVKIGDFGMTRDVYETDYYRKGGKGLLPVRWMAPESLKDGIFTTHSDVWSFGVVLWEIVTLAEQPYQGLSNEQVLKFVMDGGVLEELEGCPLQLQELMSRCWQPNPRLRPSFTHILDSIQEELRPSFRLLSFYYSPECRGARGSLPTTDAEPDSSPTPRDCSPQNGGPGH
Method in brief: as §1

JNK2 = biological target: T9, JNK2 (Homo sapiens, UniProt P45984)
T9 construct: purchased Reaction Biology Corp
T9 sequence (P45984 whole entry): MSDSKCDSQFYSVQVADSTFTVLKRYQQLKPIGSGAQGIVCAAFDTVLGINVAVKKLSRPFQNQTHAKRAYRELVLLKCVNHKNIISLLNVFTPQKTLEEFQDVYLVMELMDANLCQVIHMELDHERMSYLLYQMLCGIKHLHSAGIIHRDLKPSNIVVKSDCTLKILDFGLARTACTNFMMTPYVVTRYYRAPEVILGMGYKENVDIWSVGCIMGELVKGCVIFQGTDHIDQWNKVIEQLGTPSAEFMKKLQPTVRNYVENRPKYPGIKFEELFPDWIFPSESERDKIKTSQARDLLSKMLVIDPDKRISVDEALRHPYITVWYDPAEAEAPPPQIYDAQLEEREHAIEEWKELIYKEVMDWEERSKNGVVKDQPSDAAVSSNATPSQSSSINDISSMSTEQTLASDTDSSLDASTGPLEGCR
Method in brief: as §1

PKN3/PRK3 = biological target: T10, PKN3/PRK3 (Homo sapiens, UniProt Q6P5Z2)
T10 construct: purchased Reaction Biology Corp
T10 sequence (Q6P5Z2 whole entry): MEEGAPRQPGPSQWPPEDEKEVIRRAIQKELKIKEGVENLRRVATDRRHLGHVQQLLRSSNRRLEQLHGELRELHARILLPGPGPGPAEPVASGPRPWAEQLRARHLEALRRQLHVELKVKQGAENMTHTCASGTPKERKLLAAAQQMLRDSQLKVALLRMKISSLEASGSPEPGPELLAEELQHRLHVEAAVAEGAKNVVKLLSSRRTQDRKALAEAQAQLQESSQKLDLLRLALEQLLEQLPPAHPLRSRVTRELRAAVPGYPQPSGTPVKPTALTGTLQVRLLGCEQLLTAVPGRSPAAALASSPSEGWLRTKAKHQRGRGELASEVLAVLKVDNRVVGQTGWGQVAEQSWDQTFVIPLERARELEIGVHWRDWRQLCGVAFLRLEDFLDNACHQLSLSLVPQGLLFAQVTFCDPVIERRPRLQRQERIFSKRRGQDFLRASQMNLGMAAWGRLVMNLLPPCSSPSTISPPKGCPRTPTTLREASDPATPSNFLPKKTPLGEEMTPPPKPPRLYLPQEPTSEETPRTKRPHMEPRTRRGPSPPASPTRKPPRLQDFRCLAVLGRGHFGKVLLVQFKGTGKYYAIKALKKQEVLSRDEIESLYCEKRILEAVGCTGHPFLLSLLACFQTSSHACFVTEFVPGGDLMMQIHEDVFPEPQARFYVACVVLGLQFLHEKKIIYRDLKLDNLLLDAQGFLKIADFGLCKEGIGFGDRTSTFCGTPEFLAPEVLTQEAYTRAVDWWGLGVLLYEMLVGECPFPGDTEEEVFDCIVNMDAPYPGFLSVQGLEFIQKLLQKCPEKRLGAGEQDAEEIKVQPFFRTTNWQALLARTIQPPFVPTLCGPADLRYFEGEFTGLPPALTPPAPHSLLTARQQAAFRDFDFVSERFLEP
Method in brief: as §1

STK32C/YANK3 = biological target: T11, STK32C/YANK3 (Homo sapiens, UniProt Q86UX6)
T11 construct: purchased Reaction Biology Corp
T11 sequence (Q86UX6 whole entry): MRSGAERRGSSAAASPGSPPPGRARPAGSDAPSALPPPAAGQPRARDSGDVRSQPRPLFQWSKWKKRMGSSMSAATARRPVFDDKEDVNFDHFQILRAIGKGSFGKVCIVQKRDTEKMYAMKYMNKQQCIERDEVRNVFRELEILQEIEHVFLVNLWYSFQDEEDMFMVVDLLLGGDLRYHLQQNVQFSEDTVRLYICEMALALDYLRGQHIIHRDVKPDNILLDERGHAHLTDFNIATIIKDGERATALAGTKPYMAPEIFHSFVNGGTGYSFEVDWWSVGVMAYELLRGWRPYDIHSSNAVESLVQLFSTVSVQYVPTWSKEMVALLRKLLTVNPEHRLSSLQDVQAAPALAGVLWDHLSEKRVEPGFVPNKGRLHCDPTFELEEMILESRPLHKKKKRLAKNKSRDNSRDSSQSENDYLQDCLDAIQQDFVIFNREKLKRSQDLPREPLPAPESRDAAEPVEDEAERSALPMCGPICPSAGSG
Method in brief: as §1

[1] = read-out: % Enzyme Activity (relative to DMSO controls) Run 1
[2] = read-out: % Enzyme Activity (relative to DMSO controls) Run 2

T1 sequence (P51451 whole entry): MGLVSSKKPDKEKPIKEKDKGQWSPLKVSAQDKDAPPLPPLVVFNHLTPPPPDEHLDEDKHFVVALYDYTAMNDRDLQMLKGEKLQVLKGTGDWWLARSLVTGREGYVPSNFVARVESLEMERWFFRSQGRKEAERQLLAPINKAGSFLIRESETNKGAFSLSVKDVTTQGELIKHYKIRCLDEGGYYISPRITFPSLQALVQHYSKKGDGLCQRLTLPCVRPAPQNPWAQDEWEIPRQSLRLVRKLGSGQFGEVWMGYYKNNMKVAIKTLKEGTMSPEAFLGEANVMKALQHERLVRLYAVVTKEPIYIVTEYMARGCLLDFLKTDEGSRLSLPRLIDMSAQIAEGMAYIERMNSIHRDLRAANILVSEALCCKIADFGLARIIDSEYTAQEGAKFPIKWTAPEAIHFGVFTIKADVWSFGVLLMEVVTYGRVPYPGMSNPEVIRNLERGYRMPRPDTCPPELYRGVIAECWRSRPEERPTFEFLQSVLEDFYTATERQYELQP

`C=CC(=O)Nc1cccc(Nc2nc(Nc3ccc(OCCOC)c(F)c3)ncc2F)c1` [Compound 2] showed an inhibition at 3 µM (BLK) of 93.7%, a remaining activity at 3 µM (BLK; [1]) of 6.3% and a remaining activity at 3 µM (BLK; [2]) of 6.37%. It also gave an inhibition at 3 µM (CAMK1g) of -0.72%, a remaining activity at 3 µM (CAMK1g; [1]) of 100% and a remaining activity at 3 µM (CAMK1g; [2]) of 101%. The inhibition at 3 µM (CDK5/p35) was 4.49%, the remaining activity at 3 µM (CDK5/p35; [1]) was 95% and the remaining activity at 3 µM (CDK5/p35; [2]) was 96.1%. It also gave an inhibition at 3 µM (CHK1) of 6.15%, a remaining activity at 3 µM (CHK1; [1]) of 93.1% and a remaining activity at 3 µM (CHK1; [2]) of 94.6%. The inhibition at 3 µM (CLK3) was 6.9%, the remaining activity at 3 µM (CLK3; [1]) was 90.4% and the remaining activity at 3 µM (CLK3; [2]) was 95.8%. The inhibition at 3 µM (EPHA3) was 1.81%, the remaining activity at 3 µM (EPHA3; [1]) was 96.2% and the remaining activity at 3 µM (EPHA3; [2]) was 100%. For the same compound, the inhibition at 3 µM (FRK/PTK5) was 0.75%, the remaining activity at 3 µM (FRK/PTK5; [1]) was 101% and the remaining activity at 3 µM (FRK/PTK5; [2]) was 98%. For the same compound, the inhibition at 3 µM (IRR/INSRR) was 10.1%, the remaining activity at 3 µM (IRR/INSRR; [1]) was 88.9% and the remaining activity at 3 µM (IRR/INSRR; [2]) was 91%. It also gave an inhibition at 3 µM (JNK2) of 6.22%, a remaining activity at 3 µM (JNK2; [1]) of 92.5% and a remaining activity at 3 µM (JNK2; [2]) of 95.1%. It also gave an inhibition at 3 µM (PKN3/PRK3) of -7.32%, a remaining activity at 3 µM (PKN3/PRK3; [1]) of 106% and a remaining activity at 3 µM (PKN3/PRK3; [2]) of 108%. The inhibition at 3 µM (STK32C/YANK3) was -6.01%, the remaining activity at 3 µM (STK32C/YANK3; [1]) was 105% and the remaining activity at 3 µM (STK32C/YANK3; [2]) was 107%.
